Test results as given in ChEMBL document CHEMBL5042558, “Selective Macrocyclic Inhibitors of DYRK1A/B” (ACS Med Chem Lett, 2022).
pIC50: −log10 of the molar value. Blank lines part the entries; values can stand above or below the molecule they belong to. Active and inactive are the calls of the source. The rule behind the calls is not given here.

Experiments:
[1] = biological target: T1, Dual specificity tyrosine-phosphorylation-regulated kinase 1B (Homo sapiens, UniProt Q9Y463); assay: Inhibition of DYRK1B (unknown origin) measured after 6 hrs in presence of ATP by Z'-LYTE assay
[2] = biological target: T1, Dual specificity tyrosine-phosphorylation-regulated kinase 1B; assay: Inhibition of DYRK1B (unknown origin) at 1 uM by kinomescan method
CAL-27 [3] = assay: Induction of apoptosis in human CAL-27 cells assessed as increase in cleaved-PARP level at 1 uM after 24 hrs by Immunoblot analysis relative to control; assay type: functional
CAL-27 [4] = assay: Induction of apoptosis in human CAL-27 cells assessed as increase in cleaved-PARP level at 10 uM after 24 hrs by Immunoblot analysis relative to control; assay type: functional
CAL-27 [5] = assay: Induction of apoptosis in human CAL-27 cells assessed as PARP level at 1 uM after 24 hrs by Immunoblot analysis relative to control; assay type: functional
CAL-27 [6] = assay: Induction of apoptosis in human CAL-27 cells assessed as PARP level at 10 uM after 24 hrs by Immunoblot analysis relative to control; assay type: functional
CAL-27 [7] = assay: Induction of apoptosis in human CAL-27 cells assessed as BCL-xL level at 1 uM after 24 hrs by Immunoblot analysis relative to control; assay type: functional
CAL-27 [8] = assay: Induction of apoptosis in human CAL-27 cells assessed as BCL-xL level at 10 uM after 24 hrs by Immunoblot analysis relative to control; assay type: functional
CAL-27 [9] = assay: Antiproliferative activity against human CAL-27 cells assessed as reduction in cell viability at 10 uM measured after 72 hrs by Celltiter-Glo luminescent assay; assay type: functional
FaDu = assay: Antiproliferative activity against human FaDu cells assessed as reduction in cell viability at 10 uM measured after 72 hrs by Celltiter-Glo luminescent assay; assay type: functional
HEK-293T = assay: Antiproliferative activity against human HEK293T cells assessed as reduction in cell viability at 10 uM measured after 72 hrs by Celltiter-Glo luminescent assay; assay type: toxicity, cell-based
CAL-27 [10] = assay: Induction of apoptosis in human CAL-27 cells assessed as decrease in AKT phosphorylation at S473 residue at 0.5 uM after 24 hrs by Immunoblot analysis relative to control; assay type: functional; set-up: scale not given: the % may be the effect or the level left
CAL-27 [11] = assay: Induction of apoptosis in human CAL-27 cells assessed as decrease in AKT phosphorylation at S473 residue at 1 uM after 24 hrs by Immunoblot analysis relative to control; assay type: functional; set-up: scale not given: the % may be the effect or the level left
CAL-27 [12] = assay: Induction of apoptosis in human CAL-27 cells assessed as decrease in AKT phosphorylation at S473 residue at 5 uM after 24 hrs by Immunoblot analysis relative to control; assay type: functional; set-up: scale not given: the % may be the effect or the level left
CAL-27 [13] = assay: Induction of apoptosis in human CAL-27 cells assessed as decrease in AKT phosphorylation at S473 residue at 10 uM after 24 hrs by Immunoblot analysis relative to control; assay type: functional; set-up: scale not given: the % may be the effect or the level left
CAL-27 [14] = assay: Induction of apoptosis in human CAL-27 cells assessed as decrease in FOXO3A phosphorylation at serine 253 residue at 0.5 uM after 24 hrs by Immunoblot analysis relative to control; assay type: functional; set-up: scale not given: the % may be the effect or the level left
CAL-27 [15] = assay: Induction of apoptosis in human CAL-27 cells assessed as decrease in FOXO3A phosphorylation at serine 253 residue at 1 uM after 24 hrs by Immunoblot analysis relative to control; assay type: functional; set-up: scale not given: the % may be the effect or the level left
CAL-27 [16] = assay: Induction of apoptosis in human CAL-27 cells assessed as decrease in FOXO3A phosphorylation at serine 253 residue at 5 uM after 24 hrs by Immunoblot analysis relative to control; assay type: functional; set-up: scale not given: the % may be the effect or the level left
CAL-27 [17] = assay: Induction of apoptosis in human CAL-27 cells assessed as decrease in FOXO3A phosphorylation at serine 253 residue at 10 uM after 24 hrs by Immunoblot analysis relative to control; assay type: functional; set-up: scale not given: the % may be the effect or the level left
[18] = biological target: Serine/threonine-protein kinase ATR (Homo sapiens) (UniProt Q13535); assay: Inhibition of ATR (unknown origin) in human CAL-27 cells measured after 6 hrs by select screen kinase assay; assay type: cell-based
[19] = biological target: Serine/threonine-protein kinase Sgk1 (Homo sapiens, UniProt O00141); assay: Inhibition of SGK (unknown origin) at 1 uM by kinome scan method
[20] = biological target: Dual specificity mitogen-activated protein kinase kinase 4 (Homo sapiens, UniProt P45985); assay: Inhibition of MEK4 (unknown origin) at 1 uM by kinome scan method
[21] = biological target: Mitogen-activated protein kinase kinase kinase 19 (Homo sapiens, UniProt Q56UN5); assay: Inhibition of YSK4 (unknown origin) at 1 uM by kinome scan method
[22] = biological target: Ribosomal protein S6 kinase alpha-6 (Homo sapiens, UniProt Q9UK32); assay: Inhibition of RSK4 (unknown origin) at 1 uM by kinome scan method
Focal adhesion kinase 1 [23] = biological target: T2, Focal adhesion kinase 1 (Homo sapiens, UniProt Q05397); assay: Inhibition of FAK (unknown origin) at 1 uM by kinome scan method
[24] = biological target: T3, Ribosomal protein S6 kinase alpha-3 (Homo sapiens, UniProt P51812); assay: Inhibition of RSK2 (unknown origin) at 1 uM by kinome scan method
Misshapen-like kinase 1 = Misshapen-like kinase 1 (Homo sapiens, UniProt Q8N4C8); assay: Inhibition of MINK1 (unknown origin) at 1 uM by kinome scan method
[25] = biological target: Mitogen-activated protein kinase 8 (Homo sapiens, UniProt P45983); assay: Inhibition of JNK1 (unknown origin) in human CAL-27 cells measured after 6 hrs by select screen kinase assay; assay type: cell-based
[26] = biological target: Mitogen-activated protein kinase 9 (Homo sapiens, UniProt P45984); assay: Inhibition of JNK2 (unknown origin) in human CAL-27 cells measured after 6 hrs by select screen kinase assay; assay type: cell-based
[27] = biological target: Mitogen-activated protein kinase 10 (Homo sapiens, UniProt P53779); assay: Inhibition of JNK3 (unknown origin) in human CAL-27 cells measured after 6 hrs by select screen kinase assay; assay type: cell-based
Focal adhesion kinase 1 [28] = biological target: T2, Focal adhesion kinase 1; assay: Inhibition of FAK (unknown origin) in human CAL-27 cells measured after 6 hrs by select screen kinase assay; assay type: cell-based
[29] = biological target: Ribosomal protein S6 kinase alpha-1 (Homo sapiens, UniProt Q15418); assay: Inhibition of RSK1 (unknown origin) in human CAL-27 cells measured after 6 hrs by select screen kinase assay; assay type: cell-based
[30] = biological target: T3, Ribosomal protein S6 kinase alpha-3; assay: Inhibition of RSK2 (unknown origin) in human CAL-27 cells measured after 6 hrs by select screen kinase assay; assay type: cell-based
[31] = biological target: Ribosomal protein S6 kinase alpha-2 (Homo sapiens, UniProt Q15349); assay: Inhibition of RSK3 (unknown origin) in human CAL-27 cells measured after 6 hrs by select screen kinase assay; assay type: cell-based
[32] = Half life in C57BL/6 mouse at 10 mg/kg, po measured upto 8 hrs by LC-MS/MS analysis; assay type: ADME, organism-based; conditions: in vivo
[33] = Half life in C57BL/6 mouse at 2 mg/kg, iv measured upto 8 hrs by LC-MS/MS analysis; assay type: ADME, organism-based; conditions: in vivo
[34] = AUC (0-infinity) in C57BL/6 mouse at 10 mg/kg, po measured upto 8 hrs by LC-MS/MS analysis; assay type: ADME, organism-based; set-up: route oral, dose 10 mg/kg, time <=8; conditions: C57BL/6, mouse, in vivo
[35] = AUC (0-infinity) in C57BL/6 mouse at 2 mg/kg, iv measured upto 8 hrs by LC-MS/MS analysis; assay type: ADME, organism-based; set-up: route intravenous, dose 2 mg/kg, time <=8; conditions: in vivo
[36] = Clearance in C57BL/6 mouse at 10 mg/kg, po measured upto 8 hrs by LC-MS/MS analysis; assay type: ADME, organism-based; conditions: in vivo
[37] = Clearance in C57BL/6 mouse at 2 mg/kg, iv measured upto 8 hrs by LC-MS/MS analysis; assay type: ADME, organism-based; conditions: in vivo
[38] = Cmax in C57BL/6 mouse at 10 mg/kg, po measured upto 8 hrs by LC-MS/MS analysis; assay type: ADME, organism-based; set-up: route oral, dose 10 mg/kg, time <=8; conditions: in vivo
[39] = Cmax in C57BL/6 mouse at 2 mg/kg, iv measured upto 8 hrs by LC-MS/MS analysis; assay type: ADME, organism-based; set-up: route intravenous, dose 2 mg/kg, time <=8; conditions: in vivo
[40] = Oral bioavailability in C57BL/6 mouse at 10 mg/kg measured upto 8 hrs by LC-MS/MS analysis; assay type: ADME, organism-based; conditions: C57BL/6, mouse, in vivo

T1 sequence (Q9Y463 whole entry): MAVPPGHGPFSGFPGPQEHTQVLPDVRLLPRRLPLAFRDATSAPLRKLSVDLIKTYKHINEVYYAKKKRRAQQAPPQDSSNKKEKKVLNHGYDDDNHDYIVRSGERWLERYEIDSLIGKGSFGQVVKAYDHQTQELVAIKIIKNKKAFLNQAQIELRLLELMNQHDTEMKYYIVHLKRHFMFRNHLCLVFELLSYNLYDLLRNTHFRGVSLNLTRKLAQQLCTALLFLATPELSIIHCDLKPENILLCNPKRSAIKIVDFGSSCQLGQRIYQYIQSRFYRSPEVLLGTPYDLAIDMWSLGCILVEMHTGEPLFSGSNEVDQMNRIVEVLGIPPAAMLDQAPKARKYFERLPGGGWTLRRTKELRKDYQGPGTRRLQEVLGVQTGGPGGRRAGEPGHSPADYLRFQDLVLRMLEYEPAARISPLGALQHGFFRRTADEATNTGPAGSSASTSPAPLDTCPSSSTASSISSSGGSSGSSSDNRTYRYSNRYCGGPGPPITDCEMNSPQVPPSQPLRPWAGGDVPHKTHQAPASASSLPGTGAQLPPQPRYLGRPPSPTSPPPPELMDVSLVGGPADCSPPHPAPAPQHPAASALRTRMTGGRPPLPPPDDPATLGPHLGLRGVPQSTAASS
T2 sequence (Q05397 whole entry): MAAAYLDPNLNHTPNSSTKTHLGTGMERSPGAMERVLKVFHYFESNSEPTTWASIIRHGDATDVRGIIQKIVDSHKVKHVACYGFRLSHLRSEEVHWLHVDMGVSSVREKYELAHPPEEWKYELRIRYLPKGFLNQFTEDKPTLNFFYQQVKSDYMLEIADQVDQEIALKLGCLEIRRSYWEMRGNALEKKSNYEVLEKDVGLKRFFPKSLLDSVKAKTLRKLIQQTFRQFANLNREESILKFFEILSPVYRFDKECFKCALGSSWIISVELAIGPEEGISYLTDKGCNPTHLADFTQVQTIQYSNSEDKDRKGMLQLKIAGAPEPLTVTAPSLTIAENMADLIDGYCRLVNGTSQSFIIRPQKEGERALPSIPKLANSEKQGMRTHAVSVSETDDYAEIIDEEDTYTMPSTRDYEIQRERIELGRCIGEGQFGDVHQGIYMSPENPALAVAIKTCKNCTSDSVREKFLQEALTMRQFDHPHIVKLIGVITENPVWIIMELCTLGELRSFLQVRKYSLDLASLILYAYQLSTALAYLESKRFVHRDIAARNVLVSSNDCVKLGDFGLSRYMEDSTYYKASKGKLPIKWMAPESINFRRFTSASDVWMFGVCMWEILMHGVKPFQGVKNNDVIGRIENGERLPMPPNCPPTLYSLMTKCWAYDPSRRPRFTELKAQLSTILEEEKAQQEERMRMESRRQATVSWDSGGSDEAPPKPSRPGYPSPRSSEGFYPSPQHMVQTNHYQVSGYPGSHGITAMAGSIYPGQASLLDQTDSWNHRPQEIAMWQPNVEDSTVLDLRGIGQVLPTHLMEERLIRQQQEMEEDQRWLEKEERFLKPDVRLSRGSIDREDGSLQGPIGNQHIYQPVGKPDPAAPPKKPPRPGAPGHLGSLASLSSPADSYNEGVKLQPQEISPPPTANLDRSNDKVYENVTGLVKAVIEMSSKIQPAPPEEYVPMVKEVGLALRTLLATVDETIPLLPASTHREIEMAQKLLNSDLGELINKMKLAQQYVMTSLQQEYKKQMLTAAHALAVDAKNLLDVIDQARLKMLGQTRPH
T3 sequence (P51812 whole entry): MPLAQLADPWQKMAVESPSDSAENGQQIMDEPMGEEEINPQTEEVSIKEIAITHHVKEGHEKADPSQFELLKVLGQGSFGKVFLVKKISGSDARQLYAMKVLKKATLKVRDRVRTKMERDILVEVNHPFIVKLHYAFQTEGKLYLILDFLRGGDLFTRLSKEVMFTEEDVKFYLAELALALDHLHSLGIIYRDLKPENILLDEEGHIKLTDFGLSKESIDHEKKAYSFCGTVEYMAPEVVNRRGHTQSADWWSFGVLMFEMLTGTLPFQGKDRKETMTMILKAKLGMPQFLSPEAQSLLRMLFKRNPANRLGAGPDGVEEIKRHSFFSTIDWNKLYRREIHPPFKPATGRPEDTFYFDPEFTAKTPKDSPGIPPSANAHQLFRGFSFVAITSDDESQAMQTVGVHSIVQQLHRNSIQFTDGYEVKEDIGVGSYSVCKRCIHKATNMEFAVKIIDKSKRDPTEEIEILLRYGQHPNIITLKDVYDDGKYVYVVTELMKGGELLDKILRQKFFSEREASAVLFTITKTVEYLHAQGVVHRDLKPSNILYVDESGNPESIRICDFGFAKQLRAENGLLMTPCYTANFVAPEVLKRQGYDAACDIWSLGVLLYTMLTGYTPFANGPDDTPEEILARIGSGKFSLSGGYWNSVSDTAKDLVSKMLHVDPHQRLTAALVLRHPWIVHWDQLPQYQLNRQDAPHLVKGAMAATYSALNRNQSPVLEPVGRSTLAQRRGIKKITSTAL
Chain of Mitogen-activated protein kinase kinase kinase 19 (Q56UN5 whole entry): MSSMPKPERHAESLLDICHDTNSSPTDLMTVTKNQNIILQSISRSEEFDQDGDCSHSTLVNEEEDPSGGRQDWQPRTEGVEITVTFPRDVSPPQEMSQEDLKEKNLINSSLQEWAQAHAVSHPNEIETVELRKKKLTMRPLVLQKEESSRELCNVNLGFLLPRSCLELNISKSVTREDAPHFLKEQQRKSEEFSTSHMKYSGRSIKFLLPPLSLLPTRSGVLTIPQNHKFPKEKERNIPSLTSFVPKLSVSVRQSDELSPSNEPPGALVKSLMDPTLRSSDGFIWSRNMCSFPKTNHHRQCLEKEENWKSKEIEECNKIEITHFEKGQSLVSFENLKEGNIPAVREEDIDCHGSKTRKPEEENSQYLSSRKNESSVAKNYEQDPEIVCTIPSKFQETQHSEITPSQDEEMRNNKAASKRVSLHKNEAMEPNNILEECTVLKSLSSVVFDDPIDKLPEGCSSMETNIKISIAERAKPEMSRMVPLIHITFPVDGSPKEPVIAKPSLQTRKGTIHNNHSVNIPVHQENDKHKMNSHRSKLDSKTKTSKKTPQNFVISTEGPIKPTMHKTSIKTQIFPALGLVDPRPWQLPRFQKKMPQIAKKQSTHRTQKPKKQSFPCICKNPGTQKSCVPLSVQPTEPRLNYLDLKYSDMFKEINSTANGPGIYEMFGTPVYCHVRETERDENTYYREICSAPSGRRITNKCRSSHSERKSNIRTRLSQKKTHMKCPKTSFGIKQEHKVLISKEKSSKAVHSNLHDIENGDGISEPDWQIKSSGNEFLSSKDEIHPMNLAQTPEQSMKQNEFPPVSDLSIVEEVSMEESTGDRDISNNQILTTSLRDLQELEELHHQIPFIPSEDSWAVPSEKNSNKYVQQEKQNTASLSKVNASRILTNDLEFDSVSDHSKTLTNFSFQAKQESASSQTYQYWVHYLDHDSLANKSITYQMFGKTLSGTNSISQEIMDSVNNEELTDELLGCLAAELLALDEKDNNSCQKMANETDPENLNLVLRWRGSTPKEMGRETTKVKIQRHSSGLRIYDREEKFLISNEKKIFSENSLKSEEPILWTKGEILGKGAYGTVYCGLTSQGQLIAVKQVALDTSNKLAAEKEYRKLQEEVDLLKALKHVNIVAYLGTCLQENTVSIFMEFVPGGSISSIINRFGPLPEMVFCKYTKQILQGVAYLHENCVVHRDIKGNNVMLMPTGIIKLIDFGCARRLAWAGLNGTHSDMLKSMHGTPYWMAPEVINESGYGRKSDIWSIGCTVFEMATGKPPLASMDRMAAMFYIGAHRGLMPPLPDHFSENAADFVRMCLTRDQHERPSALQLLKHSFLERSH
Chain of Ribosomal protein S6 kinase alpha-6 (Q9UK32 whole entry): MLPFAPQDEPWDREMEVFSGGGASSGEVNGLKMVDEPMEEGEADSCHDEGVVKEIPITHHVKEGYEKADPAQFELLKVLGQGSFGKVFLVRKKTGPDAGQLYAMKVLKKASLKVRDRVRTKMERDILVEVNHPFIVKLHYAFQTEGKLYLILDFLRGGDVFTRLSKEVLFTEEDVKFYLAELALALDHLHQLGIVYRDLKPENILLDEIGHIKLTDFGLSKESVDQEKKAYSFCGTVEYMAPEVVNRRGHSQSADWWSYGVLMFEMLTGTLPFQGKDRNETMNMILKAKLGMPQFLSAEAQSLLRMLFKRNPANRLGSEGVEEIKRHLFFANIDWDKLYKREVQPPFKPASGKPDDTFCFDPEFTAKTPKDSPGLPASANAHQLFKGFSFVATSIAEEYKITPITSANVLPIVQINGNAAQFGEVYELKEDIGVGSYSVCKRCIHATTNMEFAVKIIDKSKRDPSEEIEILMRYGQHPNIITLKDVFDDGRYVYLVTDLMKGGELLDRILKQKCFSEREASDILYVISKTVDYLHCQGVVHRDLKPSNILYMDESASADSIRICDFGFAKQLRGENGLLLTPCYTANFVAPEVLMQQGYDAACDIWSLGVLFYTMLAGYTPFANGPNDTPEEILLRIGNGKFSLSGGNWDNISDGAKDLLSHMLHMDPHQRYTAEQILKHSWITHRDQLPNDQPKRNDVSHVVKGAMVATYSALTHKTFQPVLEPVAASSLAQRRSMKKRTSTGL
Chain of Serine/threonine-protein kinase Sgk1 (O00141 whole entry): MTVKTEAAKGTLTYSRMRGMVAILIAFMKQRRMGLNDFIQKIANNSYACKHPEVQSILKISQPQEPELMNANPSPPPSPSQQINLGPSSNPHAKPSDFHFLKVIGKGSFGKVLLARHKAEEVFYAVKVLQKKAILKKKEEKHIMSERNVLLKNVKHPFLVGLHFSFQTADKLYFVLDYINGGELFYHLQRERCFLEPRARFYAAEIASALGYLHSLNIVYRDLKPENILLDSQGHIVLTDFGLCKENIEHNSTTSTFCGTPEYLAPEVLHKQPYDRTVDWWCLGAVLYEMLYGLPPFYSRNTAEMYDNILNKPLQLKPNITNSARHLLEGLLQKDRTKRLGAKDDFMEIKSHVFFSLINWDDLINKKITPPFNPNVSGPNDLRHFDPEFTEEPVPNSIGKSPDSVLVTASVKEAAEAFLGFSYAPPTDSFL

SMILES: CN1Cc2nn(C)c(C#N)c2-c2cc3c(c[nH]c3nn2)-c2cn(nc2C(F)(F)F)CCCC1=O
pIC50 [1]: 5.52

SMILES: Cc1[nH]c2ncc3cc2c1-c1cn(nc1C(F)(F)F)CCCC(=O)N(C)Cc1nn(C)c(C#N)c1-3
Activity (CAL-27 [3]): 133%
Activity (CAL-27 [4]): 190%
Activity (CAL-27 [5]): 120%
Activity (CAL-27 [6]): 134%
Activity (CAL-27 [7]): 103%
Activity (CAL-27 [8]): 105%

SMILES: CN1Cc2nn(C)c(C#N)c2-c2cnc3[nH]c(F)c(c3c2)-c2cn(nc2C(F)(F)F)CCCC1=O
pIC50 [19]: 6.16
Activity (CAL-27 [3]): 128%
Activity (CAL-27 [4]): 540%
pIC50 [20]: 6.88
pIC50 [21]: 5.79
pIC50 [22]: 7.43
pIC50 (Focal adhesion kinase 1 [23]): 6.68
pIC50 [24]: 6.74
pIC50 (Misshapen-like kinase 1): 6.94
pIC50 [25]: 5.95
pIC50 [26]: 5.96
pIC50 [27]: < 5.00
pIC50 (Focal adhesion kinase 1 [28]): 7.05
pIC50 [29]: 7.09
pIC50 [30]: 7.10
pIC50 [31]: 7.21
Activity (CAL-27 [9]): 45%
Activity (FaDu): 40%
Activity (HEK-293T): Non-Toxic
Activity (CAL-27 [5]): 104%
Activity (CAL-27 [6]): 93%
Activity (CAL-27 [7]): 61%
Activity (CAL-27 [8]): 58%
Activity (CAL-27 [10]): 81%
Activity (CAL-27 [11]): 85%
Activity (CAL-27 [12]): 74%
Activity (CAL-27 [13]): 63%
Activity (CAL-27 [14]): 56%
Activity (CAL-27 [15]): 49%
Activity (CAL-27 [16]): 10%
Activity (CAL-27 [17]): 38%
half-life [32]: 2.4 h
half-life [33]: 1.2 h
AUC(0-inf) [34]: 5770 ng·h/mL
AUC(0-inf) [35]: 8950 ng·h/mL
CL/F [36]: 29.3 mL/min/kg
clearance [37]: 5.9 mL/min/kg
Cmax [38]: 6.4 µM
Cmax [39]: 34.1 µM
bioavailability [40]: 12.3%

More lines, main results first:

pIC50 [1]: 7.15
pIC50 [2]: 7.72
SMILES: CN1Cc2nn(C)cc2-c2cnc3[nH]cc(c3c2)-c2cnn(c2)CCCC1=O

pIC50 [1]: 6.82
SMILES: CN1Cc2nn(C)cc2-c2cnc3[nH]cc(c3c2)-c2cnn(c2)CCCCC1=O

inhibition [18]: Active
SMILES: O=C(O)c1ccc2c(c1)nc(Nc1cccc(Cl)c1)c1ccncc12 [SILMITASERTIB]
Activity (CAL-27 [3]): 201%
Activity (CAL-27 [4]): 871%
Activity (CAL-27 [9]): 80%
Activity (FaDu): 75%
Activity (HEK-293T): Active
Activity (CAL-27 [5]): 127%
Activity (CAL-27 [6]): 137%
Activity (CAL-27 [7]): 80%
Activity (CAL-27 [8]): 103%
Activity (CAL-27 [10]): 54%
Activity (CAL-27 [11]): 53%
Activity (CAL-27 [12]): 85%
Activity (CAL-27 [13]): 85%
Activity (CAL-27 [14]): 103%
Activity (CAL-27 [15]): 150%
Activity (CAL-27 [16]): 139%
Activity (CAL-27 [17]): 150%
